Assay results as given in article PMC2361071, “A phase I and pharmacokinetic study of novel taxane BMS-188797 and cisplatin in patients with advanced solid tumours” (British Journal of Cancer, 2005).
Entries after “also recorded” stand apart in the source; their conditions may differ. Like-named read-outs stand apart in the source and are kept apart here.

Key:
[1] = test system: patients with advanced malignancies; parameters: method as in Sullivan et al, 2000; details: single agent, 1-h infusion every 3 weeks; ref Sullivan et al, 2000; cited from earlier work
[2] = test system: human tumour cell lines highly resistant to paclitaxel; parameters: method as in Rose et al, 2001; details: ref Rose et al, 2001, cited from earlier work
[3] = test system: patients with advanced solid tumours; experiment: Antitumour activity, response by WHO criteria; assay type: in vivo, human
Procedure: (§1) Toxicity was evaluated according to NCI CTC (Vers. 2.0; revised April 30, 1999) in all patients receiving study drug. Tumour measurement was performed in patients with measurable disease after every other cycle; response was assessed according to World Health Organization (WHO) criteria. Ascites or serum tumour marker elevations were not considered in the assessment of response status except in case of progressive disease or complete remission when both had to be normalised.

[4] = test system: patients with advanced malignancies; parameters: method as in Advani et al (2003); details: single agent, weekly administration; ref Advani et al (2003); cited from earlier work
[5] = test system: patients; parameters: method as in Sullivan et al, 2001; details: ref Sullivan et al, 2001, cited from earlier work
[6] = test system: patients with advanced malignancies; parameters: method as in Advani et al, 2002; details: weekly BMS-188797 with carboplatin, DLs AUC 6/33 mg m−2 and AUC 5/43 mg m−2, preliminary data; ref Advani et al, 2002; cited from earlier work
[7] = test system: paclitaxel-resistant tumour models in mice; parameters: method as in Rose et al, 2001; details: ref Rose et al, 2001; cited from earlier work
[8] = test system: patients with advanced solid tumours; experiment: Phase I dose escalation of BMS-188797 plus cisplatin: DLT, MTD and toxicity (NCI CTC v2.0); assay type: in vivo
Procedure: This study was an open-label, single-centre, phase I, dose-escalation trial with the primary objective to determine the MTD and DLT and to recommend a future phase II dose. Secondary objectives were safety, antitumour activity and pharmacokinetics of the experimental drug. The study was carried out with ethical committee approval.
BMS-188797 administered by a 1-h infusion was followed by a 1-h infusion of cisplatin starting 30 min after the end of the BMS-188797 infusion; both drugs were given on day 1, every 3 weeks. Six treatment cycles were planned. Treatment had to be discontinued upon progression or occurance of intolerable toxicity.
If no further DLT occurred, the next DL was opened. If the total number of patients with DLT at any DL was two or higher, then dose escalation was terminated and additional patients were enrolled at the next lower DL. The MTD was defined as the DL at which none of the three or one of six patients experienced a DLT. Once the MTD had been established, accrual at the respective DL was expanded to determine its suitability as the recommended phase II dose.
The DLT was defined as first-course toxicity with ANC <500 μl^−1 for ⩾5 days, or febrile neutropenia (fever >38.5°C and ANC <1000 μl^−1), or thrombocytopenia <25,000 μl^–1; or bleeding requiring platelet transfusion, or any other drug-related grade ⩾3 toxicity except fatigue/asthenia, transient arthralgia/myalgia, or grade 3 AST/ALT elevation (resolving to baseline within 3 weeks). Furthermore, delayed recovery from toxicity related to treatment with BMS-188797 and cisplatin that delayed scheduled retreatment for 21 days or longer was regarded as DLT.
as §1

[9] = Plasma pharmacokinetics of BMS-188797 in patients, cycle 1 (HPLC, noncompartmental analysis); assay type: in vivo, human; details: for AUC(0-inf) / Cmax / half-life: human, plasma, intravenous
Procedure: In all, 5 ml of blood were collected for pharmacokinectic analysis using Becton-Dickenson Vacutainers® that contained K3EDTA as the anticoagulant. Blood sampling for pharmacokinetics analysis was performed in all patients during cycle 1. Serial blood samples were drawn at the following times relative to the start of the 1 h infusion of BMS-188797: predose, 30 min, 58 min (drawn prior to the end of the infusion), and 1.25, 1.5, 2, 2.5, 3, 4, 5, 6, 8, 24, 48 and 72 h. Within 1 h of collection, the plasma was separated by centrifugation at 1000 rpm for 15 min at 4°C. Plasma was stored at or below […] until analysis. Plasma samples were analysed for BMS-188797 concentrations by HPLC. After the addition of internal standard, BMS-183061, to 1.0 ml of plasma, the sample was loaded onto a CN-U solid-phase extraction column. The compounds were eluted with 0.1% formic acid in methanol, the eluate evaporated to dryness, and the residue reconstituted. Chromatographic separation of the compounds was achieved on a YMC-ODS-AQ, 4.6 × 150 mm, 3 μm column using a mobile phase containing 30% water in acetonitrile. Detection was by ultraviolet absorbance at 228 nm. The standard curve range was 2–1000 ng ml^−1. The coefficient of variation (CV) for the between- and within-run precision for analytical quality control samples were no greater than 3.0 and 7.1%, respectively
Estimates of pharmacokinetic parameters for BMS-188797 were derived from individual concentration–time data sets by noncompartmental analyses ([Gibaldi and Perrier, 1982]). The values of the maximum plasma concentration (Cmax) were recorded directly from experimental observations. The area under the plasma concentration vs. time curve from time zero to the time of the last measurable concentration T (AUC0-T) was calculated using a combination of linear and log trapezoidal summations. The first-order rate constant of decline of BMS-188797 concentrations in the terminal phase of the plasma concentration–time data set, λ, was estimated by log-linear regression, using no weighting factor, of at least three data points yielding a minimum mean square error. The absolute value of λ was used to estimate the apparent terminal elimination half-life, t1/2. The last measurable concentration and the rate constant, λ, were used to extrapolate the AUC0-T to estimate AUC0-∞ (the area under the curve from time zero to infinity). The total body clearance (Cl) was calculated by dividing the dose by AUC0-∞. The volume of distribution at steady state (VSS) was calculated using standard noncompartmental methods.

[10] = 1-h infusion every 3 weeks combined with cisplatin 75 mg m−2
[11] = 80 mg m−2 1-h infusion with cisplatin 75 mg m−2, cycle 1, n=3, mean±s.d.
[12] = 110 mg m−2 1-h infusion with cisplatin 75 mg m−2, cycle 1, n=12, mean±s.d.
[13] = 150 mg m−2 1-h infusion with cisplatin 75 mg m−2, cycle 1, n=1
[14] = mean±s.d. of the three dose groups (80, 110, 150 mg m−2), cycle 1

Structure (SMILES): COC(=O)O[C@@]12CO[C@@H]1C[C@H](O)[C@@]1(C)C(=O)[C@H](OC(C)=O)C3=C(C)[C@@H](OC(=O)[C@H](O)[C@@H](NC(=O)c4ccccc4)c4ccccc4)C[C@@](O)([C@@H](OC(=O)c4ccccc4)[C@H]21)C3(C)C [BMS-188797, 4-desacetyl-4-methyl carbonate derivate of paclitaxel]
- maximum tolerated dose (MTD) [1]: 175 mg m^−2
- antiproliferative activity ([2]; cell lines resistant through P-glycoprotein overexpression or beta-tubulin mutations): potent antiproliferative activity
- cell cycle effect [2]: G2/M cell cycle arrest
- stable disease as best response, patients ([3]; DL 1, 80 mg m−2 with cisplatin, ovarian cancer, NSCLC, CUP): three patients
- progressive disease, patients ([3]; DL 2, 110 mg m−2 with cisplatin, lung cancer (two), ovarian sarcoma, CUP): Four patients
- complete remissions ([3]; DL 2, 110 mg m−2 with cisplatin, ovarian (two) and cervical cancer (one)): three complete remissions
- partial response ([3]; DL 2, 110 mg m−2 with cisplatin, ovarian cancer): One partial response
- stable disease, patients ([3]; DL 2, 110 mg m−2 with cisplatin, urachus carcinoma and NSCLC): two patients
- best response of the only patient treated ([3]; DL 3, 150 mg m−2 with cisplatin, CUP): disease progression
- objective response, patients ([3]; all dose levels, 16 patients): four patients
- MTD [4]: 50 mg m^−2
- MTD ([5]; with carboplatin AUC 5, every 3 weeks): 125 mg m^−2
- Dose-limiting toxicities (DLT) ([5]; with carboplatin, every 3 weeks): febrile neutropenia and slow recovery from neutropenia
- dose-limiting toxicities [6]: prolonged grade 4 neutropenia and delayed haematological recovery
- in vivo activity [7]: potent in vivo activity
- Mild hypersensitivity reactions (grade 2 rash and dyspnea), patients affected ([8]; 110 mg m−2 DL, with steroid and H1/H2-antagonist premedication): only one patient
- maximum tolerated dose (MTD) [8, 10]: 110 mg m^−2
- recommended phase II dose [8, 10]: 110 mg m^−2
- median duration of neutropenia ([8]; DL 1, 80 mg m−2): 4 days
- median time to the neutrophil nadir ([8]; DL 1, 80 mg m−2): 12 days
- median duration of neutropenia ([8]; DL 2, 110 mg m−2): 8 days
- median time to the neutrophil nadir ([8]; DL 2, 110 mg m−2): 14 days
- MTD (dose level designated) ([8]; DL 2, 110 mg m−2 with cisplatin 75 mg m−2): MTD
- median duration of neutropenia ([8]; DL 3, 150 mg m−2): 4 days
- median time to the neutrophil nadir ([8]; DL 3, 150 mg m−2): 8 days
- alopecia, patients affected ([8]; all dose levels, 16 patients): All patients but one
- Cl [9, 11]: 333±14 (317, 344) ml min−1 m−2
- VSS [9, 11]: 331±135 (214, 478) l m−2
- interpatient coefficient of variation of CL ([9]; 110 mg m−2): 19%
- interpatient coefficient of variation of VSS ([9]; 110 mg m−2): 35%
- interpatient coefficient of variation of t1/2 ([9]; 110 mg m−2): 24%
- Cl [9, 12]: 322±60 (234, 437) ml min−1 m−2
- VSS [9, 12]: 244±86 (115, 395) l m−2
- range of AUC0-∞ values ([9]; 110 mg m−2 DL): 1.8 fold
- Cl [9, 13]: 206 NA ml min−1 m−2
- VSS [9, 13]: 209 NA l m−2
- dose dependence (linearity) of pharmacokinetics ([9]; 80-150 mg m−2 with cisplatin 75 mg m−2): appeared linear through the 110 mg m^−2, but not through the 150 mg m^−2 DL; also recorded: appeared independent of dose through the 110 mg m^−2 DL, but not through the 150 mg m^−2 DL; also recorded: appeared linear through a DL of 110 mg m^−2
- AUC(0-inf) [9, 11]: 4000 ± 184 ng·h/mL
- Cmax [9, 11]: 2650 ± 690 ng/mL
- half-life ([9]; 80 mg m−2 1-h infusion with cisplatin 75 mg m−2, cycle 1, n=3, mean±s.d., read-out: t1/2 (converted)): 31 ± 11.7 h
- AUC(0-inf) [9, 12]: 5870 ± 1060 ng·h/mL
- Cmax [9, 12]: 3370 ± 591 ng/mL
- half-life ([9]; 110 mg m−2 1-h infusion with cisplatin 75 mg m−2, cycle 1, n=12, mean±s.d., read-out: t1/2 (converted)): 30.6 ± 7.5 h
- AUC(0-inf) [9, 13]: 12200 ng·h/mL
- Cmax [9, 13]: 5770 ng/mL
- half-life ([9]; 150 mg m−2 1-h infusion with cisplatin 75 mg m−2, cycle 1, n=1, read-out: t1/2 (converted)): 31.4 h
- half-life ([9]; 150 mg, mean±s.d. of the three dose groups (80, 110, 150 mg m−2), cycle 1, read-out: terminal half-life (converted)): 30.8 ± 7.7 h
- clearance [9, 14]: 317±60 ml min^−1 m^−2
- volume of distribution at steady state [9, 14]: 258±96 l m^−2
- clearance in the 150 mg m−2 patient relative to patients at 80 or 110 mg m−2 ([9]; n=1 at 150 mg m−2): approximately one-third lower
